According to patent US12139492B2 (Endotarget Inc., priority 2021, dated 2024):
Read-outs that look alike come from different tables or passages of the source.

Columns and labels:
[1] = system: Mino cells; test: Antiproliferative effect, MTS cell viability assay, Mino cells; type: cell-based; conditions: Mino mantle cell lymphoma cells, read-out: IC50 (anti-proliferation) Mino cells
Procedure, shortened: (§1)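 Steps: seed B-cell lymphoma line; add compound at 0, 0.001, 0.01, 0.1, 1 or 10 μM; incubate 72 h; add MTS and read reduced tetrazolium (formazan) absorbance at 490 nm.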

[2] = system: JeKo-1 cells; test: Antiproliferative effect, MTS cell viability assay, JeKo-1 cells; type: cell-based; conditions: JeKo-1 mantle cell lymphoma cells, read-out: IC50 (anti-proliferation) JeKO-1 cells
Procedure, shortened: as §1

[3] = biological target: BTK (Homo sapiens, UniProt Q06187); test: Degradation of BTK protein in Namalwa cells (Western blot; DC50, Dmax); conditions: for DC50: read-out: DC50 (BTK degradation), concentration giving 50% reduction of BTK expression level, cell line not given; for Dmax: read-out: Dmax (BTK degradation); for degradation of BTK protein: Namalwa B lymphocyte cells, various concentrations, 24 hours, Western blot
Chain of BTK (Q06187 whole entry): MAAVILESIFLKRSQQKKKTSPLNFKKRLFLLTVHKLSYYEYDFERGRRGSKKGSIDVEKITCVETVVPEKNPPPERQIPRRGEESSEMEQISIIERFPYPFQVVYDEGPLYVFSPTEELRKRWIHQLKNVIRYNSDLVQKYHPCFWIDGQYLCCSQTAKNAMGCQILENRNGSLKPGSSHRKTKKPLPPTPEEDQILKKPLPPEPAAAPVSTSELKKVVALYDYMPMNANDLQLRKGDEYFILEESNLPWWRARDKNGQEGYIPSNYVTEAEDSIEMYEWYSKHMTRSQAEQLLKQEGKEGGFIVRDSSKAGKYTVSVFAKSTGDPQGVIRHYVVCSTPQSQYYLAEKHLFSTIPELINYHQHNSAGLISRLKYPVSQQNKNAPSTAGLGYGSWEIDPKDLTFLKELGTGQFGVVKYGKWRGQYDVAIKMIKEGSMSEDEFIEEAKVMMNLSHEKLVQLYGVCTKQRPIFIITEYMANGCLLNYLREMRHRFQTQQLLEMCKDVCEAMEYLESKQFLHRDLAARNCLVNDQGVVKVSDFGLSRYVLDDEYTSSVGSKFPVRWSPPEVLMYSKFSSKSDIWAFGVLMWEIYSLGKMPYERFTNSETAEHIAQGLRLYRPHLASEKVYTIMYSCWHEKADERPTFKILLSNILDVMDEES

DC50 [3]	Dmax [3]	degradation of BTK protein [3]	SMILES	IC50 ([1]; Homo sapiens, MINO)	IC50 ([2]; Homo sapiens)	IC50 [1]	IC50 [2]
< 0.01 µM	> 90%		NC(=O)c1c(-c2ccc(Oc3ccccc3)cc2)nn2c1NCC[C@H]2C1CCN(CC2CCN(C(=O)N3CCC(N4CCN(c5ccc6c(c5)CN(C5CCC(=O)NC5=O)C6=O)CC4)CC3)CC2)CC1 (stereo partly drawn) [Compound 404, (7S)-7-(1-((1-(4-(4-(2-(2,6-dioxopiperidin-3-yl)-1-oxoisoindolin-5-yl)piperazin-1-yl)piperidine-1-carbonyl)piperidin-4-yl)methyl)piperidin-4-yl)-2-(4-phenoxyphenyl)-4,5,6,7-tetrahydropyrazolo[1,5-a]pyrimidine-3-carboxamide]	< 1 µM	< 1 µM		
0.01 to 0.05 µM	> 90%		NC(=O)c1c(-c2ccc(Oc3ccccc3)cc2)nn2c1NCC[C@H]2C1CCN(CC2CCN(C(=O)N3CCC(C4CCN(c5ccc6c(c5)C(=O)N(C5CCC(=O)NC5=O)C6=O)CC4)CC3)CC2)CC1 (stereo partly drawn) [Compound 405, (7S)-7-(1-((1-(1′-(2-(2,6-dioxopiperidin-3-yl)-1,3-dioxoisoindolin-5-yl)-[4,4′-bipiperidine]-1-carbonyl)piperidin-4-yl)methyl)piperidin-4-yl)-2-(4-phenoxyphenyl)-4,5,6,7-tetrahydropyrazolo[1,5-a]pyrimidine-3-carboxamide]	< 1 µM	1 to 10 µM		
< 0.01 µM	> 90%		NC(=O)c1c(-c2ccc(Oc3ccccc3)cc2)nn2c1NCC[C@H]2C1CCN(CC2CCN(C(=O)N3CCC(C4CCN(c5ccc6c(c5)CN(C5CCC(=O)NC5=O)C6=O)CC4)CC3)CC2)CC1 (stereo partly drawn) [Compound 406, (7S)-7-(1-((1-(1′-(2-(2,6-dioxopiperidin-3-yl)-1-oxoisoindolin-5-yl)-[4,4′-bipiperidine]-1-carbonyl)piperidin-4-yl)methyl)piperidin-4-yl)-2-(4-phenoxyphenyl)-4,5,6,7-tetrahydropyrazolo[1,5-a]pyrimidine-3-carboxamide]	< 1 µM	1 to 10 µM		
0.01 to 0.05 µM	> 75%		NC(=O)c1c(-c2ccc(Oc3ccccc3)cc2)nn2c1NCC[C@H]2C1CCN(CC2CCN(C(=O)N3CCC(N4CCC(c5ccc6c(c5)C(=O)N(C5CCC(=O)NC5=O)C6=O)CC4)CC3)CC2)CC1 (stereo partly drawn) [Compound 407, (7S)-7-(1-((1-(4-(2-(2,6-dioxopiperidin-3-yl)-1,3-dioxoisoindolin-5-yl)-[1,4′-bipiperidine]-1′-carbonyl)piperidin-4-yl)methyl)piperidin-4-yl)-2-(4-phenoxyphenyl)-4,5,6,7-tetrahydropyrazolo[1,5-a]pyrimidine-3-carboxamide]	1 to 10 µM	> 10 µM		
0.01 to 0.05 µM	> 75%		NC(=O)c1c(-c2ccc(Oc3ccccc3)cc2)nn2c1NCC[C@H]2C1CCN(CC2CCN(C(=O)N3CCC(N4CCC(c5ccc6c(c5)CN(C5CCC(=O)NC5=O)C6=O)CC4)CC3)CC2)CC1 (stereo partly drawn) [Compound 408, (7S)-7-(1-((1-(4-(2-(2,6-dioxopiperidin-3-yl)-1-oxoisoindolin-5-yl)-[1,4′-bipiperidine]-1′-carbonyl)piperidin-4-yl)methyl)piperidin-4-yl)-2-(4-phenoxyphenyl)-4,5,6,7-tetrahydropyrazolo[1,5-a]pyrimidine-3-carboxamide]	> 10 µM	1 to 10 µM		
< 0.01 µM	> 90%		NC(=O)c1c(-c2ccc(Oc3ccccc3)cc2)nn2c1NCC[C@H]2C1CCN(CC2CCN(C(=O)N3CCC(CN4CCN(c5ccc6c(c5)C(=O)N(C5CCC(=O)NC5=O)C6=O)CC4)CC3)CC2)CC1 (stereo partly drawn) [Compound 409, (7S)-7-(1-((1-(4-((4-(2-(2,6-dioxopiperidin-3-yl)-1,3-dioxoisoindolin-5-yl)piperazin-1-yl)methyl)piperidine-1-carbonyl)piperidin-4-yl)methyl)piperidin-4-yl)-2-(4-phenoxyphenyl)-4,5,6,7-tetrahydropyrazolo[1,5-a]pyrimidine-3-carboxamide]	< 1 µM	1 to 10 µM		
< 0.01 µM	> 90%		NC(=O)c1c(-c2ccc(Oc3ccccc3)cc2)nn2c1NCC[C@H]2C1CCN(CC2CCN(C(=O)N3CCC(CN4CCN(c5ccc6c(c5)CN(C5CCC(=O)NC5=O)C6=O)CC4)CC3)CC2)CC1 (stereo partly drawn) [Compound 410, (7S)-7-(1-((1-(4-((4-(2-(2,6-dioxopiperidin-3-yl)-1-oxoisoindolin-5-yl)piperazin-1-yl)methyl)piperidine-1-carbonyl)piperidin-4-yl)methyl)piperidin-4-yl)-2-(4-phenoxyphenyl)-4,5,6,7-tetrahydropyrazolo[1,5-a]pyrimidine-3-carboxamide]	1 to 10 µM	1 to 10 µM		
0.01 to 0.05 µM	> 90%		NC(=O)c1c(-c2ccc(Oc3ccccc3)cc2)nn2c1NCC[C@H]2C1CCN(CC2CCN(C(=O)N3CCN(CC4CCN(c5ccc6c(c5)C(=O)N(C5CCC(=O)NC5=O)C6=O)CC4)CC3)CC2)CC1 (stereo partly drawn) [Compound 411, (7S)-7-(1-((1-(4-((1-(2-(2,6-dioxopiperidin-3-yl)-1,3-dioxoisoindolin-5-yl)piperidin-4-yl)methyl)piperazine-1-carbonyl)piperidin-4-yl)methyl)piperidin-4-yl)-2-(4-phenoxyphenyl)-4,5,6,7-tetrahydropyrazolo[1,5-a]pyrimidine-3-carboxamide]	< 1 µM	1 to 10 µM		
0.01 to 0.05 µM	> 90%		NC(=O)c1c(-c2ccc(Oc3ccccc3)cc2)nn2c1NCC[C@H]2C1CCN(CC2CCN(C(=O)N3CCN(CC4CCN(c5ccc6c(c5)CN(C5CCC(=O)NC5=O)C6=O)CC4)CC3)CC2)CC1 (stereo partly drawn) [Compound 412, (7S)-7-(1-((1-(4-((1-(2-(2,6-dioxopiperidin-3-yl)-1-oxoisoindolin-5-yl)piperidin-4-yl)methyl)piperazine-1-carbonyl)piperidin-4-yl)methyl)piperidin-4-yl)-2-(4-phenoxyphenyl)-4,5,6,7-tetrahydropyrazolo[1,5-a]pyrimidine-3-carboxamide]	1 to 10 µM	< 1 µM		
< 0.01 µM	> 90%		NC(=O)c1c(-c2ccc(Oc3ccccc3)cc2)nn2c1NCC[C@H]2C1CCN(CC2CCN(C(=O)N3CCC(CC4CCN(c5ccc6c(c5)CN(C5CCC(=O)NC5=O)C6=O)CC4)CC3)CC2)CC1 (stereo partly drawn) [Compound 414, (7S)-7-(1-((1-(4-((1-(2-(2,6-dioxopiperidin-3-yl)-1-oxoisoindolin-5-yl)piperidin-4-yl)methyl)piperidine-1-carbonyl)piperidin-4-yl)methyl)piperidin-4-yl)-2-(4-phenoxyphenyl)-4,5,6,7-tetrahydropyrazolo[1,5-a]pyrimidine-3-carboxamide]	< 1 µM	< 1 µM		
0.01 to 0.05 µM	> 75%		NC(=O)c1c(-c2ccc(Oc3ccccc3)cc2)nn2c1NCC[C@H]2C1CCN(CC2CCN(C(=O)N3CCC(CN4CCC(c5ccc6c(c5)C(=O)N(C5CCC(=O)NC5=O)C6=O)CC4)CC3)CC2)CC1 (stereo partly drawn) [Compound 415, (7S)-7-(1-((1-(4-((4-(2-(2,6-dioxopiperidin-3-yl)-1,3-dioxoisoindolin-5-yl)piperidin-1-yl)methyl)piperidine-1-carbonyl)piperidin-4-yl)methyl)piperidin-4-yl)-2-(4-phenoxyphenyl)-4,5,6,7-tetrahydropyrazolo[1,5-a]pyrimidine-3-carboxamide]	< 1 µM	1 to 10 µM		
0.01 to 0.05 µM	> 75%		NC(=O)c1c(-c2ccc(Oc3ccccc3)cc2)nn2c1NCC[C@H]2C1CCN(CC2CCN(C(=O)N3CCC(CN4CCC(c5ccc6c(c5)CN(C5CCC(=O)NC5=O)C6=O)CC4)CC3)CC2)CC1 (stereo partly drawn) [Compound 416, (7S)-7-(1-((1-(4-((4-(2-(2,6-dioxopiperidin-3-yl)-1-oxoisoindolin-5-yl)piperidin-1-yl)methyl)piperidine-1-carbonyl)piperidin-4-yl)methyl)piperidin-4-yl)-2-(4-phenoxyphenyl)-4,5,6,7-tetrahydropyrazolo[1,5-a]pyrimidine-3-carboxamide]	1 to 10 µM	1 to 10 µM		
0.01 to 0.05 µM	> 75%	dose-dependent degradation	Nc1ncnc2c1c(-c1ccc(Oc3ccccc3)cc1)nn2C1CCN(CCOCCOCCN2CC=C(c3ccc4c(c3)CN(C3CCC(=O)NC3=O)C4=O)CC2)CC1 (stereo not shown) [Compound 417, 3-(5-(1-(2-(2-(2-(4-(4-amino-3-(4-phenoxyphenyl)-1H-pyrazolo[3,4-d]pyrimidin-1-yl)piperidin-1-yl)ethoxy)ethoxy)ethyl)-1,2,3,6-tetrahydropyridin-4-yl)-1-oxoisoindolin-2-yl)piperidine-2,6-dione]	1 to 10 µM	1 to 10 µM		
< 0.01 µM	> 90%	dose-dependent degradation	Nc1ncnc2c1c(-c1ccc(Oc3ccccc3)cc1)nn2C1CCN(CCOCCOCCN2CCC(c3ccc4c(c3)C(=O)N(C3CCC(=O)NC3=O)C4=O)CC2)CC1 (stereo not shown) [Compound 418, 5-(1-(2-(2-(2-(4-(4-amino-3-(4-phenoxyphenyl)-1H-pyrazolo[3,4-d]pyrimidin-1-yl)piperidin-1-yl)ethoxy)ethoxy)ethyl)piperidin-4-yl)-2-(2,6-dioxopiperidin-3-yl)isoindoline-1,3-dione]			1 to 10 µM	1 to 10 µM
